Results from publication doi:10.64898/2025.12.11.693803v1 (biorxiv, 2025).

Columns and labels:
[1] = target: T1, SnRK1 (in IP-TOR) (Arabidopsis thaliana, UniProt Q38997); assay: AMARA-peptide kinase assay with [γ-32P]ATP; format: biochemical; conditions: IP-TOR sample; 200 μM AMARA peptide, 20 μM ATP, 10 mM MgCl2, pH 7.5, 30 °C
T1 sequence (Q38997 1-512): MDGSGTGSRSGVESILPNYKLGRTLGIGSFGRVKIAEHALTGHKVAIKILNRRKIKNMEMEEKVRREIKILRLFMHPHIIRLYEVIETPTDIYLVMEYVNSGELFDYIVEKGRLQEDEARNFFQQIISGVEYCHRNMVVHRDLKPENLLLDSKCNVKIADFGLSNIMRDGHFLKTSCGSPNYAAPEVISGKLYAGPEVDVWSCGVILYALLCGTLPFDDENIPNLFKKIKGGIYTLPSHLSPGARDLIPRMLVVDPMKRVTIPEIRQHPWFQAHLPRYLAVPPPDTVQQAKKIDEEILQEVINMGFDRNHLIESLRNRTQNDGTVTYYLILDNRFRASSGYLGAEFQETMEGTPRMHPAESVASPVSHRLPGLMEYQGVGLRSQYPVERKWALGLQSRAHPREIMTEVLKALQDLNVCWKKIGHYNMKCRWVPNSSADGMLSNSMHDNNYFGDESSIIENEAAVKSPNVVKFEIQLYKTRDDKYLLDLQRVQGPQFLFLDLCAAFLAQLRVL

[2] = target: IP-TOR (TOR) (Arabidopsis thaliana, UniProt Q9FR53); assay: biochemical
Sequence of IP-TOR (TOR) (Q9FR53 whole entry): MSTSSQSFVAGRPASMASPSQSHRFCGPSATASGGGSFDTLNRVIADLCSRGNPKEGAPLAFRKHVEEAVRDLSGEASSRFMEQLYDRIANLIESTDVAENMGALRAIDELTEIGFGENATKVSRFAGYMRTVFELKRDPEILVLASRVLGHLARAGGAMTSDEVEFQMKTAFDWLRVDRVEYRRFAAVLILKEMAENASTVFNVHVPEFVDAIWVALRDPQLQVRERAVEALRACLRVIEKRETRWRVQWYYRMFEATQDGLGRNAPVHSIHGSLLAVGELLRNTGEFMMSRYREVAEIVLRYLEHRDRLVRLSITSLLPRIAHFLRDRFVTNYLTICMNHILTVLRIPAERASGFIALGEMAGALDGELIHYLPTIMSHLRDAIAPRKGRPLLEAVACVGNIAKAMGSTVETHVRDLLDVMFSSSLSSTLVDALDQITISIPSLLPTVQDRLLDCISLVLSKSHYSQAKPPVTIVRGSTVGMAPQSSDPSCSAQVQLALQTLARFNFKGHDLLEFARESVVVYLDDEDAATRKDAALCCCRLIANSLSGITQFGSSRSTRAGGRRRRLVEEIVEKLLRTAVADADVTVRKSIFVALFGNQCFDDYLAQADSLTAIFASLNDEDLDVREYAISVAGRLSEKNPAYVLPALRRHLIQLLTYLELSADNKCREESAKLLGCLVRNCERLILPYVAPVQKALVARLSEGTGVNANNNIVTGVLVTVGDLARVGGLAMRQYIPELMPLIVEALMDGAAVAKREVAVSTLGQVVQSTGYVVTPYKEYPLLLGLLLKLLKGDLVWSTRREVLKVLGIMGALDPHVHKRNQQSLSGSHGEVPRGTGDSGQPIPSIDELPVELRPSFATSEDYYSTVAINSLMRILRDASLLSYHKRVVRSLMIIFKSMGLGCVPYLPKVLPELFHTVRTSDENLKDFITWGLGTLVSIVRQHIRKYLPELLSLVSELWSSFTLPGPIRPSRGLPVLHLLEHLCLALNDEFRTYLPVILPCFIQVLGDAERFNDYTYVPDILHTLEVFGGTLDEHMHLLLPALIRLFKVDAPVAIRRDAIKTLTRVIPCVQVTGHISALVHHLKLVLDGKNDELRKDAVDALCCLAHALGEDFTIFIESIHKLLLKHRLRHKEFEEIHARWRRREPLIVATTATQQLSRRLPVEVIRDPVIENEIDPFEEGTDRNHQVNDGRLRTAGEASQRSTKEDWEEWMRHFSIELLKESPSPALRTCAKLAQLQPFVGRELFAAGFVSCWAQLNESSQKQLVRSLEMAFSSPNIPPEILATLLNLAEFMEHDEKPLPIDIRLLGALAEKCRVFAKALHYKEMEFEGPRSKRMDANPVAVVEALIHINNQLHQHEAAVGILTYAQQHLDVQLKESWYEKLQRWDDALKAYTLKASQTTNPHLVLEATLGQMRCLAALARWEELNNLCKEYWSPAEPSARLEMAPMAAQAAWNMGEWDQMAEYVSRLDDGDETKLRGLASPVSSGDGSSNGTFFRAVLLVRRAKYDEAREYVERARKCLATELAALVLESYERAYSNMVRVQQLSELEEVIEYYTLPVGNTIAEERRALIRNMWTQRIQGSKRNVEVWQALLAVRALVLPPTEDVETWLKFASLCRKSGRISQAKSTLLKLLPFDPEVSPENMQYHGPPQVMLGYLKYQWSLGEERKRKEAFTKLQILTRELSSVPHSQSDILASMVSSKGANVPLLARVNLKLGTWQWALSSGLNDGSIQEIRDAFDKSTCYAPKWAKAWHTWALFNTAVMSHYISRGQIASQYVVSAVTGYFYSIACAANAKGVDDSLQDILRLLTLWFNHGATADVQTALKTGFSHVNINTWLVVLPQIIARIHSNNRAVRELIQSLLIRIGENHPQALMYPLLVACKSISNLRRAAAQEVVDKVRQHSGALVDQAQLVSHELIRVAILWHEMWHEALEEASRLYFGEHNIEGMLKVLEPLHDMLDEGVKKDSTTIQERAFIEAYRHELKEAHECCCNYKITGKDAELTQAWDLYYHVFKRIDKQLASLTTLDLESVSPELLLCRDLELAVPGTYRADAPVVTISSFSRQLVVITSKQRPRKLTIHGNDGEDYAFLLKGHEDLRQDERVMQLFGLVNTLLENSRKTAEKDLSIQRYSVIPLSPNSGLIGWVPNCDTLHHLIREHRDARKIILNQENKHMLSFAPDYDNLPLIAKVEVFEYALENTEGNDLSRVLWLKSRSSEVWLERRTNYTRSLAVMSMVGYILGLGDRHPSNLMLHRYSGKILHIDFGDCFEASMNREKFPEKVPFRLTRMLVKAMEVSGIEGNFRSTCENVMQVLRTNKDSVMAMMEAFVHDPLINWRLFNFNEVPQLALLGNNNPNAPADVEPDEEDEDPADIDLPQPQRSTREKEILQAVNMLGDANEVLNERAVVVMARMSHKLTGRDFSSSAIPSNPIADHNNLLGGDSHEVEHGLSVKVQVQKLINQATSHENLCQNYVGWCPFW

% reduction of activity at 1 mM [1]	Kd [2]	Structure (SMILES)
> 50%		O=P(O)(O)OC[C@H]1O[C@H](O[C@H]2O[C@H](CO)[C@@H](O)[C@H](O)[C@H]2O)[C@H](O)[C@@H](O)[C@@H]1O [T6P, Trehalose 6-phosphate]
	5.89 ± 0.83 µM	Nc1ncnc2c1ncn2[C@@H]1O[C@H](COP(=O)(O)OP(=O)(O)OP(=O)(O)O)[C@@H](O)[C@H]1O [ATP]
